The structures appear in SMILES notation. pIC50: −log10 of the molar value. ≈ marks a conversion by molar mass, not a printed value. A value given as a limit tells only on which side of the number the result lay.

The subject of series [1] is Mycobacterium tuberculosis. Description: Antimycobacterial activity Mycobacterium tuberculosis H37Rv assessed as growth inhibition measured at day 7 by broth microdilution method. The format is functional. Particulars: 168 h. Background: In broth dilution the organism is exposed to a series of concentrations in liquid medium.
The nature of series [2]: Selectivity index, ratio of IC50 for rat L6 cells to IC50 for Plasmodium falciparum K1 by [3H] hypoxanthine uptake inhibition assay. The format is toxicity, cell-based. Conditions: rat L6 cells versus Plasmodium falciparum K1, read-out: Ratio IC50.
In series [3] the test system is L6. Description: Cytotoxicity against rat L6 cells after 72 hrs by fluorometric analysis. Particulars: L6, 72 h. The class given is cell-based.
Series [4] has as its system Plasmodium falciparum. Description: Antimalarial activity against Plasmodium falciparum K1 assessed as inhibition of [3H] hypoxanthine uptake by liquid scintillation counting. The class given is functional, organism-based.

The term MIC99 denotes an inhibitory concentration at the 99% level, which refers to growth in some studies and to a panel of isolates in others. The pIC50 is −log10 of the IC50, conventionally taken in molar units. For the compound `CC(C)(C)n1nnnc1C(NCCNc1ccnc2cc(Cl)ccc12)c1ccc(CO[C@@H]2COc3nc([N+](=O)[O-])cn3C2)cc1` (some centres undefined), in series [1], the MIC99 was found to be 0.313 µM (≈ 0.198 µg/mL). For the same compound, the selectivity ratio in series [2] was 246. The pIC50 in series [3] is 4.61; in series [4], 7.00.
`CC(C)(C)n1nnnc1C(NCCCNc1ccnc2cc(Cl)ccc12)c1ccc(CO[C@@H]2COc3nc([N+](=O)[O-])cn3C2)cc1` (some centres undefined): in series [2], the selectivity ratio worked out at 85. Further, the figures for the pIC50 in series [3] and in series [4] were 4.38 and 6.31, respectively.
`CC(C)(C)n1nnnc1C(NCCCCNc1ccnc2cc(Cl)ccc12)c1ccc(CO[C@@H]2COc3nc([N+](=O)[O-])cn3C2)cc1` (some centres undefined): the MIC99 in series [1] is 0.625 µM (≈ 0.413 µg/mL). For the same compound, the selectivity ratio in series [2] amounted to 175. Moreover, the pIC50 in series [3] is 4.53; in series [4], 6.79.
The matching figures for `COc1cc(NC(C)CCCNC(c2ccc(CO[C@@H]3COc4nc([N+](=O)[O-])cn4C3)cc2)c2nnnn2C(C)(C)C)c2ncccc2c1` (some centres undefined): 0.625 µM (≈ 0.419 µg/mL), 37, 4.12 and 5.69.
With `COc1cc(NC(C)CCCNC(c2cccc(CO[C@@H]3COc4nc([N+](=O)[O-])cn4C3)c2)c2nnnn2C(C)(C)C)c2ncccc2c1` (some centres undefined), the MIC99 in series [1] stood at 5 µM (≈ 3.35 µg/mL). For the same compound, the selectivity ratio in series [2] was 145. Besides, the results for the negative logarithm of the IC50 (pIC50) in series [3] and in series [4] were 3.85 and 6.01, respectively.
The matching figures for `CN(CCO)CCNc1ccnc2cc(Cl)ccc12`: > 160 µM, 995, 4.11 and 7.11.
As to `CN(CCO)CCCNc1ccnc2cc(Cl)ccc12`, in series [1], the MIC99 is > 160 µM. Besides, in series [2], the selectivity ratio is 63. Moreover, the pIC50 in series [3] was 4.61; in series [4] it was 6.41.
The matching figures for `O=[N+]([O-])c1cn2c(n1)OC[C@@H](OCCCNc1ccnc3cc(Cl)ccc13)C2`: 1.25 µM (≈ 0.505 µg/mL), 12.8, 3.87 and 4.98.
On to `O=Cc1ccc(CO[C@@H]2COc3nc([N+](=O)[O-])cn3C2)cc1`, for which, in series [1], the MIC99 stood at 0.25 µM (≈ 0.0758 µg/mL).
Consider `O=Cc1cccc(CO[C@@H]2COc3nc([N+](=O)[O-])cn3C2)c1`, for which the MIC99 in series [1] was 0.625 µM (≈ 0.19 µg/mL). For the same compound, the selectivity ratio in series [2] was 0.54. The pIC50 in series [3] is 4.46; in series [4] it was 4.20.
The matching figures for `CN(C)C(c1ccc(CO[C@@H]2COc3nc([N+](=O)[O-])cn3C2)cc1)c1nnnn1C(C)(C)C` (some centres undefined): 0.625 µM (≈ 0.285 µg/mL), 11.2, 3.75 and 4.80.
Take `CCN(CC)C(c1ccc(CO[C@@H]2COc3nc([N+](=O)[O-])cn3C2)cc1)c1nnnn1C(C)(C)C` (some centres undefined): in series [1], the MIC99 came to 0.313 µM (≈ 0.152 µg/mL). In series [2], the selectivity ratio came out at 14.2. Further, the pIC50 in series [3] was 3.95; in series [4], 5.10.
In the case of `CC(C)(C)n1nnnc1C(c1ccc(CO[C@@H]2COc3nc([N+](=O)[O-])cn3C2)cc1)N1CCCC1` (some centres undefined), the MIC99 in series [1] came to 0.313 µM (≈ 0.151 µg/mL). For the same compound, the selectivity ratio in series [2] is 8.65. In addition, the pIC50 in series [3] is 4.12; in series [4], 5.06.
For the compound `OCCNc1ccnc2cc(Cl)ccc12`, the MIC99 in series [1] is > 160 µM. Also, the selectivity ratio in series [2] stood at 159. For the same compound, the pIC50 in series [3] was 3.63; in series [4], 5.83.
The matching figures for `OCCCNc1ccnc2cc(Cl)ccc12`: > 160 µM, 164, 3.75 and 5.96.
As to `O=[N+]([O-])c1cn2c(n1)OC[C@@H](O)C2`, the MIC99 in series [1] stood at 40 µM (≈ 7.41 µg/mL). For the same compound, the pIC50 in series [3] was 3.48; in series [4] it was < 3.57.
Regarding `NCCNc1ccnc2cc(Cl)ccc12`, the MIC99 in series [1] is > 160 µM. In series [2], the selectivity ratio was determined as 71.2. Further, the pIC50 was 4.67 in series [3] and 6.53 in series [4].
Regarding `CCN(CC)CCCC(C)Nc1ccnc2cc(Cl)ccc12` (centres undefined) [CHLOROQUINE], the MIC99 in series [1] is > 160 µM.
Still for that read-out and setting: for `NC[C@H]1O[C@H](O[C@H]2[C@H](O)[C@@H](O[C@H]3O[C@H](CO)[C@@H](O)[C@H](N)[C@H]3O)[C@H](N)C[C@@H]2N)[C@H](O)[C@@H](O)[C@@H]1O` [KANAMYCIN] the value was 5.4 µM (≈ 2.62 µg/mL).
The compound `COc1cc([C@@H]2c3cc4c(cc3[C@H](O)[C@H]3COC(=O)[C@H]23)OCO4)cc(OC)c1OC` [PODOFILOX] showed a negative-log IC50 (pIC50) in series [3] of 7.71.
In the case of `COc1cc(NC(C)CCCN)c2ncccc2c1` (centres undefined) [PRIMAQUINE], the MIC99 in series [1] stood at 80 µM (≈ 20.7 µg/mL). In addition, the pIC50 in series [4] was 6.19.
Take `CN[C@@H]1[C@H](O[C@H]2[C@H](O[C@H]3[C@H](O)[C@@H](O)[C@H](N=C(N)N)[C@@H](O)[C@@H]3N=C(N)N)O[C@@H](C)[C@]2(O)C=O)O[C@@H](CO)[C@H](O)[C@H]1O` [STREPTOMYCIN]: the MIC99 in series [1] is 0.27 µM (≈ 0.157 µg/mL).
